In paper PMC5175178, “Development of an in-vivo active reversible butyrylcholinesterase inhibitor” (Scientific Reports, 2016):

Columns and labels:
mice = assay: Locomotor activity test; details: 30 mg kg^–1 IP, 1 h before the assay
From the text: Eight-week-old male Albino Swiss (CD–1 Krf) mice weighing from 18 g to 22 g were used in the passive avoidance task, and the locomotor activity and rotarod tests, and C57BL/6 J mice of the same age were used in the MWM and the RAWM tasks. […] The mice had free access to food and water, and the ambient temperature and humidity of the room were kept constant throughout all of the tests. For the behavioral tasks, the mice were selected at random, and each group consisted of 8 to 10 mice dose^−1. The experiments were performed between 08:00 and 14:00. Immediately after these in-vivo assays, the animals were euthanized by cervical dislocation. […] All efforts were made to minimize the number of mice used and their suffering.
Data are means ±SEM. The vehicle and the test compound were administered intraperitoneally, 1 h before the assay. Statistical analysis of the data was performed using repeated measures analysis of variance (ANOVA), followed by Bonferroni multiple comparisons.
The mouse locomotor activity (i.e., number of light-beam crossings) was measured during the next 30 min of the test^36.

mAChE = biological target: T1, mAChE (Mus musculus, UniProt P21836); assay: In-vitro inhibitory activity against mAChE, method of Ellman; assay type: biochemical, murine
T1 construct: donated by Florian Nachon (IBS, Grenoble)
T1 sequence (P21836 32-614): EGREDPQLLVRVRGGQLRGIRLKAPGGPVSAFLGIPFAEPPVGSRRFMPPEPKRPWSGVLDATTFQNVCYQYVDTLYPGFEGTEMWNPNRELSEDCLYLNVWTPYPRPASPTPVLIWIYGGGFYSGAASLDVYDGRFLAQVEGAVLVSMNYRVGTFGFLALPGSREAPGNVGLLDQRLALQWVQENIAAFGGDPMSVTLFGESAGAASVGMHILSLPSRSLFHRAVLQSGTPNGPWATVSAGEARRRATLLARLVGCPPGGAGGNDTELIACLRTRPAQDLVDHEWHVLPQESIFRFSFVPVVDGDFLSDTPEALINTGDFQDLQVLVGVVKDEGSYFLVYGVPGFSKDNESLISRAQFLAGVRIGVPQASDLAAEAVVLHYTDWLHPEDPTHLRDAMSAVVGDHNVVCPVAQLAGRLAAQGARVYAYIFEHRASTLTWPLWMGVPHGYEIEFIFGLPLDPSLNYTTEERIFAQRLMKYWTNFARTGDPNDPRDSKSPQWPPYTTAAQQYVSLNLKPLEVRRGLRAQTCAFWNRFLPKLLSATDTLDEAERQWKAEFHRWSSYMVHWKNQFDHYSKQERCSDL
Method: The inhibitory potencies of the compounds against the ChEs were determined using the method of Ellman[32].
The enzyme solutions were prepared by dilution of the concentrated stocks in phosphate-buffered solution (0.1 M, pH 8.0). […] The reactions were started by addition of the substrate, at room temperature. The final content of the organic solvent (DMSO) was always 1%. […] To determine the blank value (b), phosphate-buffered solution replaced the enzyme solution. The initial velocity (v0) was calculated from the slope of the linear trend obtained, with each measurement carried out in triplicate. […] The compounds were added to each well at a final concentration of 10 μM. […] The initial velocities in the presence of the test compounds (vi) were calculated. The inhibitory potencies are expressed as the residual activities (RA = (vi – b) / (vo – b)). […] The IC50 values were obtained by plotting the residual enzyme activities against the applied inhibitor concentrations, with the experimental data fitted to Equation (1):
where X is the logarithm of the inhibitor concentration, and Y is the residual activity. For the fitting procedure, the Gnuplot software and an in-house python script were used.

**Q.** `COCCN(CC1CCCN(Cc2ccccc2)C1)S(=O)(=O)c1ccc2ccccc2c1` (racemic) [compound 2, (±)-N-((1-benzylpiperidin-3-yl)methyl)-N-(2-methoxyethyl)naphthalene-2-sulfonamide] was tested. Which “locomotor activity of mice” value (mice) did it give?
**A.** transient reduction in the locomotor activity

**Q.** What about the “%RA at 10 µM ±SEM mAChE” value (mAChE; residual activity at 10 μM, %RA > 75% was considered as no inhibition, Table 1) of the same compound?
**A.** 97% ± 2%

**Q.** What about the “%RA at 10 µM ±SEM mAChE” value (mAChE; residual activity at 10 µM, %RA >75% was considered no inhibition, Supplementary Table 1) of the same compound?
**A.** 97% ±2%
